From US20140030289A1, “COMPOSITIONS COMPRISING BETA-CARYOPHYLLENE AND METHODS OF UTILIZING THE SAME” (priority 2011, published 2014)

Assays:
[1] = system: BS-24-1: mouse lymphoma cell; assay: Cell death / anti-proliferative assay (MTT/XTT) in BS-24-1 cells; type: cell-based; conditions: BS-24-1, 4.8e^−4 μM, 2 h
Method: (§1) The following cell lines were used in this study: (1) BS-24-1: mouse lymphoma cell; (2) MoFir: Epstein-Barr virus transformed human B lymphocytes generated in the laboratory by transformation of human B cell from an anonymous donor (see below); (3) FB: normal human skin fibroblasts.
(§2) Cell death was assessed by incubation of cells with tetrazolium salt XTT. The production of formazan can be monitored using an ELISA reader at a wavelength of 450 nm. Cytotoxicity in compound-treated culture was expressed as follows: % survival=100×(absorbance of compound-treated cell/absorbance of ethanol-treated cells).
(§3) In order to investigate whether C. gikadensis extracts had anti-proliferative effects against tumor cell lines, an MTT (3-(4,5-Dimethylthiazol-2-yl)-2,5-diphenyltetrazolium bromide) assay was used. The effect of this extract was assessed in mouse (BS-24-1) and human (MoFir) cell lines using ethanol (EtOH)-based stem extracts. The concentration of cells was 1.0×10^6/mL.

[2] = system: MoFir: Epstein-Barr virus transformed human B lymphocytes; assay: Cell death / anti-proliferative assay (MTT/XTT) in MoFir cells; type: cell-based; conditions: 4.8e^−4 μM, 2 h
Method: as §1
To establish the MoFir cells, B cells from whole blood were prepared by Ficoll -Hypaque density gradient centrifugation. The cells were infected with the B95-8 strain of Epstein-Barr virus. RPMI medium (Biological Industries Beit Haemek) was used for cell culture. The EBV B lymphocyte cell line was maintained in RPMI supplemented with 10% FBS, 100 U/mL penicillin and […] streptomycin. The culture was maintained at 37° C. in 5% CO2 atmosphere. […]
as §2
as §3, with “The concentration of cells was 1.0×10^6/mL.” left out

[3] = system: caspase-3; assay: Caspase-3 cellular activity assay, BS-24-1 cells; type: cell-based, mouse
[4] = system: caspase-3; assay: Caspase-3 cellular activity assay, MoFir cells; type: cell-based, human
Method: FIG. 4. is a bar graph showing the apoptogenic effects of β-Caryophyllene on two tumor cell lines. Enzymatic activity of different cell lines incubated with β-Caryophyllene (2.4e^−4 μM) for 2 h. X axis represents the time of the enzymatic reaction in vitro in minutes.
FIG. 5. is a bar graph showing the apoptogenic effects of β-Caryophyllene on two tumor cell lines. […] Measurements were taken following 1020 min of enzymatic reaction in vitro. Pre-incubation with caspase-3 inhibitor (DEVD-CHO) eliminated any development of caspase-3 activity.
Caspase-3 cellular activity assay was carried out according to the manufacturer's instructions. For measuring specific inhibition by Ac-DEVD-CHO, cell extracts were pre-incubated with the inhibitor (0.05 μM) for 10 minutes before the addition of the substrate. […] Cellular extracts were prepared and then caspase-3 activity was measured.

[5] = system: BS-24-1 cells; assay: DNA ladder analysis (apoptosis), BS-24-1 cells; type: cell-based, mouse; conditions: BS-24-1, 2-h treatment
Method: FIG. 6. is a gel micrograph showing the DNA ladder effect (induction of apoptosis) of different compositions. BS-24-1 cells (1,000,000/mL) were incubated with C. gileadensis stem and leaf extracts (6 μl/mL) for 17 h. DNA was separated and analyzed on agarose gel. Lanes 1-7 and 11, H2O based stem extract. Lanes 8-10, H2O based leaf extract. Lanes 12-18 and 22, ethanol based stem extract. Lanes 19-21, ethanol based leaf extract. Lanes 23 and 24 Control cells treated with ethanol (0.05%) and water.
FIG. 8. is a gel micrograph showing the DNA ladder effect (induction of apoptosis) of different compositions. BS-24-1 cells were incubated with C. gileadensis essential oil for 24 h. DNA was separated and analyzed on agarose gel. Lane 1, untreated cells with ethanol (0.05%) alone. Lane 2, cells incubation with 0.625 μl/mL essential oil. Lane 3, cells incubation with 1.25 μl/mL essential oil.
FIG. 9. is a gel micrograph showing the DNA ladder effect (induction of apoptosis) of β-Caryophyllene. Fragmentation of DNA in the presence of β-Caryophyllene. BS-24-1 cells were incubated in the presence of β-Caryophyllene in three different concentrations and two incubation time Lane 1, untreated cells with ethanol (0.05%) alone. Lane 2, cells incubated for 24 h with […] Lane 3, cells incubated for 2 h with 9.6 μM β-caryophyllene. […]

[6] = system: FB: normal human skin fibroblasts; assay: DNA ladder analysis (apoptosis), normal FB cells; type: cell-based; conditions: summary statements
Method: FIG. 7. is a gel micrograph showing the DNA ladder effect (induction of apoptosis) of different compositions. MoFir and normal FB cells were incubated with C. gileadensis extract (2.5 μl/mL) for 24 h. DNA was separated and analyzed on agarose gel. Lane 1 and 2, ethanol based stem extract Lane 3-5, ethanol based leaf extract. Lane 6 control cells treated with ethanol (0.05%).
DNA ladder analysis was performed as previously described Ofir R. et al., (1999) (Ofir R, Zhang L-, Adams J M. Interference with gene expression induces rapid apoptosisin p53-null T lymphoma cells. Cell Death and Differentiation 1999; 6: 1216-1221).

[7] = system: EBV-producing B95-8 cells; assay: Survival of EBV-producing B95-8 cells; type: cell-based; conditions: increasing concentration
From the text: Epstein-Barr virus strain B95-8 can immortalize human B lymphocytes. B95-8 is a cell line that produces Epstein-Barr virus (EBV).

[8] = molecular target: T1, Topoisomerase I (Homo sapiens, UniProt P11387); assay: Topoisomerase I activity; type: biochemical
T1 sequence (P11387 1-765): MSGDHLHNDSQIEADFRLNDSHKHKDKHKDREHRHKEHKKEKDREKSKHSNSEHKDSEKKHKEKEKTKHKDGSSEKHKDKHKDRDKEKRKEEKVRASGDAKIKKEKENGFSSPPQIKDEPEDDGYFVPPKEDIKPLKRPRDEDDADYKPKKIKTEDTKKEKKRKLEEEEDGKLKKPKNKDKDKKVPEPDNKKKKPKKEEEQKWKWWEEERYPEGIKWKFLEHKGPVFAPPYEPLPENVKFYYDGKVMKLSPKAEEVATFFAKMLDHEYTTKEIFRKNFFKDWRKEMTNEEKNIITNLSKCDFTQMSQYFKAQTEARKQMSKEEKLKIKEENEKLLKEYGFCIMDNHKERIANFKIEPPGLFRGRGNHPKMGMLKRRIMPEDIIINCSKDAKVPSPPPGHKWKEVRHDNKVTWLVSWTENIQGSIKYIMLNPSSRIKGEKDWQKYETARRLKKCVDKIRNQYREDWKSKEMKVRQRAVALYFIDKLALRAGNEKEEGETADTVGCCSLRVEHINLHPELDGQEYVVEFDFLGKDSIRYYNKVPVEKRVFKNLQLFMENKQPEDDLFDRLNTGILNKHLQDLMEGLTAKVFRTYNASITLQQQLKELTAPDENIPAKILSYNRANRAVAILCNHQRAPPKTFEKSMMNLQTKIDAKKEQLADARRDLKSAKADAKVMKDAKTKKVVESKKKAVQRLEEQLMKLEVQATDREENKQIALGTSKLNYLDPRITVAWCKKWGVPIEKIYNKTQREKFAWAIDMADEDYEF
From the text: Topoisomerase I introduces a nick in the DNA backbone allowing the rotation of one DNA strand around the second DNA strand. The DNA break is extremely transient and is re-ligated almost immediately. When an inhibitor of Topoisomerase I is present, it binds to the Topoisomerase I-nicked DNA complex or to the Topoisomerase I itself and this prevents the re-ligation of the nicked strand or the initial nick and rotation, respectively. Topoisomerase I and II activities are required for Epstein-Barr Virus replication.

[9] = system: Epstein-Barr virus; assay: In vivo EBV animal model (humanized mouse or rabbit); conditions: 5.0, 10 or 20 mg/kg, 4 consecutive days, i.p. or within food or drinking water
Method: Studies evaluating the effect of C. gileadensis extract and β-caryophyllene in an in vivo animal model are performed using the humanized mouse animal model described in Sato et al., 2011 (“A novel animal model of Epstein-Barr virus-associated hemophagocytic lymphohistiocytosis in humanized mice” Blood, 2011 May 26; 117(21):5663-73, incorporated herein by reference in its entirety) or using the rabbit model described in Takashima, 2008 (“A new animal model for primary and persistent Epstein-Barr virus infection: human EBV-infected rabbit characteristics determined using sequential imaging and pathological analysis” J Med. Virol. 2008 March; 80(3):455-66, incorporated herein by reference in its entirety). C. gileadensis extract and β-caryophyllene are supplied in balanced salt solution containing 12% Tween 80 (pH 7.4) and diluted immediately before use in appropriate concentrations. Doses of 5.0, 10 or 20 mg/kg are administered for 4 consecutive days to control and EBV groups (eight animals/group) by i.p. injection of 0.1 ml per mouse or within the food or drinking water. Both C. gileadensis extract and β-caryophyllene are found to prevent EBV-induced death, viremia, leukocytosis, IFN-γ cytokinenemia, normocytic anemia, and thrombocytopenia, and increase survival time

[10] = molecular target: cannabinoid receptor type-2 (Homo sapiens, UniProt P34972); conditions: background statement; cited from earlier work
Sequence of cannabinoid receptor type-2 (P34972 whole entry): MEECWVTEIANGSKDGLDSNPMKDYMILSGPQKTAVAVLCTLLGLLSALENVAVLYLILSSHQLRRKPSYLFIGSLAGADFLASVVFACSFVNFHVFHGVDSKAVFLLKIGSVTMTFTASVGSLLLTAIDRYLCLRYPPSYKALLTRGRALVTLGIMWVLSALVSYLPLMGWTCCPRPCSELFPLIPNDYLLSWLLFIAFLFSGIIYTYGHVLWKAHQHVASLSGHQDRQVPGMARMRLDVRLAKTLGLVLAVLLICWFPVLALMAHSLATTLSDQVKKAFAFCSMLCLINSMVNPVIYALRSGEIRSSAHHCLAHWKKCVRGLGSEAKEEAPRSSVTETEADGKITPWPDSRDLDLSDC

[11] = molecular target: cannabinoid receptor type-1 (CB 1) (Homo sapiens, UniProt P21554); conditions: background statement; cited from earlier work
Sequence of cannabinoid receptor type-1 (CB 1) (P21554 whole entry, species assumed): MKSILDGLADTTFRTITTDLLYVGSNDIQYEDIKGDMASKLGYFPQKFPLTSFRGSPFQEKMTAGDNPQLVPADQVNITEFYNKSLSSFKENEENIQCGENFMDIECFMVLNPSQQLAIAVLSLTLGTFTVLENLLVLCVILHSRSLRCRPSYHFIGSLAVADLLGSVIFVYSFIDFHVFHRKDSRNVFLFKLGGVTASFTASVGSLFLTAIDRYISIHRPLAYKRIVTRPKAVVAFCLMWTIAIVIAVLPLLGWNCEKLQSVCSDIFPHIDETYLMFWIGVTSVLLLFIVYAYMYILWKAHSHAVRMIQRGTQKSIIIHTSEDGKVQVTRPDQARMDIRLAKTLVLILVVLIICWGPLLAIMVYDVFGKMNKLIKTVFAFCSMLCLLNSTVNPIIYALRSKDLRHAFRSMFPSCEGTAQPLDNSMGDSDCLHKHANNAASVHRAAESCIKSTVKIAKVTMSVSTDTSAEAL

Compound | cell killing [1] | cell killing [2] | enzymatic activity of caspase-3 ([3]; BS-24-1, 2.4e^−4 μM, 4 h incubation) | induction of caspase-3 enzymatic activity compared to reference compounds STS and citral ([3]; data not shown, cell line not stated) | enzymatic activity of caspase-3 ([4]; 2.4e^−4 μM) | DNA ladder (DNA fragmentation) [5] | apoptosis induction in normal cells (FB) [6] | survival of EBV-producing B95-8 cells [7] | activity of Topoisomerase I [8] | EBV-induced death, viremia, leukocytosis, IFN-γ cytokinenemia, normocytic anemia, and thrombocytopenia [9] | survival time [9] | binding to cannabinoid receptor type-2 [10] | binding to cannabinoid receptor type-1 (CB 1) [11] | beta-caryophyllene induced increase of caspase-3 activity after inhibitor pretreatment ([3]; BS-24-1, pretreatment with inhibitor (0.05 μM, 10 minutes)) | beta-caryophyllene induced increase of caspase-3 activity after inhibitor pretreatment ([4]; pretreatment with inhibitor (0.05 μM, 10 minutes))
C=C1CC/C=C(\C)CC[C@@H]2[C@@H]1CC2(C)C [Beta-caryophyllene, trans-(1R,9S)-8-Methylene-4,11,11-trimethylbicyclo[7.2.0]undec-4-ene] | 85-90% | 85-90% | activation of the enzymatic activity of caspase-3 | stronger than both | activation of the enzymatic activity of caspase-3 | repeated | not in normal cells | decreases the survival | inhibits | prevent | increase | selectively bind | does not bind |  | 
Ac-DEVD-CHO [reference compound] |  |  |  |  |  |  |  |  |  |  |  |  |  | blocked | blocked
